Results on two compounds are retold here after PubChem BioAssay (NCI).

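Five concentrations, 48 hours, 96-well plates. Definition used: TGI = concentration required for complete inhibition of growth.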

Some test systems named below: ACHN renal; BT-549 breast; HOP-92 NSCLC; MDA-MB-231 breast; MDA-MB-435; NCI-H23 lung; NCI-H522 lung; SF-539 CNS; SN12C renal; SW-620 colon; UO-31 renal.
Assay in all cases: NCI-60 cell line screen, 48 h

Turning to `CC1(C)NC2C(=O)c3c([nH]c4ccccc34)[C@]3(C)CCC1CC23` (some centres not stated), the TGI in the assay on ACHN renal, in the assay on BT-549 breast, in the assay on HOP-92 NSCLC, in the assay with MDA-MB-231 breast, in the assay on MDA-MB-435 and in the assay with NCI-H23 lung was over 100 µM in each case. The TGI in the assay on NCI-H522 lung, with SF-539 CNS, in the assay with SN12C renal, with SW-620 colon and in the assay on UO-31 renal was over 100 µM in each case.
For the compound `Cc1ccc(/C=C2\CCCc3ccccc3C2=O)cc1`, the TGI with ACHN renal is over 100 µM; in the assay on BT-549 breast it was 54.1 µM; in the assay on HOP-92 NSCLC it was 72.4 µM; with MDA-MB-231 breast, 36.9 µM; in the assay on MDA-MB-435, 8.46 µM; with NCI-H23 lung, 89.1 µM. Moreover, the TGI with NCI-H522 lung is 27.8 µM; with SF-539 CNS, 37.5 µM; in the assay on SN12C renal it was 39.6 µM; in the assay on SW-620 colon it was 65.9 µM; with UO-31 renal, over 100 µM.
